Experimental data reported in PubChem BioAssay AID2060484 (Molecular Pharmacology Branch, DTP, NCI, 2025).

Test system: SUM149PT spheroids with HUVEC/MSC, viability
Assay: Anticancer human tumor SUM149PT cell line growth inhibition [GQUAD];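 also: spheroids exposed to drugs for seven days before readout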;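 as to viability, T/C: percent viability relative to DMSO vehicle control taken as 100%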
Conditions: for IC50: curve of first compound; for viability, T/C: stronger effect = lower value
Summary of the method: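 Tumor cells were grown as complex spheroids with HUVEC endothelial cells and mesenchymal stem cells as stroma. G-quadruplex stabilizers were combined with targeted agents over half-log dilutions from near the clinical Cmax, or from 10 microM.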

[1] = second compound 0.0316 µM, first compound 0.0316 µM
[2] = second compound 0.0316 µM, first compound 0.1 µM
[3] = second compound 0.0316 µM, first compound 0.316 µM
[4] = second compound 0.0316 µM, first compound 1 µM
[5] = second compound 0.0316 µM, first compound 3.16 µM
[6] = second compound 0.0316 µM, first compound 10 µM
[7] = second compound 0.1 µM, first compound 0.0316 µM
[8] = second compound 0.1 µM, first compound 0.1 µM
[9] = second compound 0.1 µM, first compound 0.316 µM
[10] = second compound 0.1 µM, first compound 1 µM
[11] = second compound 0.1 µM, first compound 3.16 µM
[12] = second compound 0.1 µM, first compound 10 µM
[13] = second compound 0.316 µM, first compound 0.0316 µM
[14] = second compound 0.316 µM, first compound 0.1 µM
[15] = second compound 0.316 µM, first compound 0.316 µM
[16] = second compound 0.316 µM, first compound 1 µM
[17] = second compound 0.316 µM, first compound 3.16 µM
[18] = second compound 0.316 µM, first compound 10 µM
[19] = second compound 1 µM, first compound 0.0316 µM
[20] = second compound 1 µM, first compound 0.1 µM
[21] = second compound 1 µM, first compound 0.316 µM
[22] = second compound 1 µM, first compound 1 µM
[23] = second compound 1 µM, first compound 3.16 µM
[24] = second compound 1 µM, first compound 10 µM
[25] = second compound 3.16 µM, first compound 0.0316 µM
[26] = second compound 3.16 µM, first compound 0.1 µM
[27] = second compound 3.16 µM, first compound 0.316 µM
[28] = second compound 3.16 µM, first compound 1 µM
[29] = second compound 3.16 µM, first compound 3.16 µM
[30] = second compound 3.16 µM, first compound 10 µM
[31] = second compound 10 µM, first compound 0.0316 µM
[32] = second compound 10 µM, first compound 0.1 µM
[33] = second compound 10 µM, first compound 0.316 µM
[34] = second compound 10 µM, first compound 1 µM
[35] = second compound 10 µM, first compound 3.16 µM
[36] = second compound 10 µM, first compound 10 µM

SMILES: C=CCn1c(=O)c2cnc(Nc3ccc(N4CCN(C)CC4)cc3)nc2n1-c1cccc(C(C)(C)O)n1 + CN(C)c1ccc(Nc2c3ccc(NC(=O)CCN4CCCC4)cc3nc3cc(NC(=O)CCN4CCCC4)ccc23)cc1
- IC50 (second compound 0.0316 µM): 196 nM
- IC50 (second compound 0.1 µM): 174 nM
- IC50 (second compound 0.316 µM): 155 nM
- IC50 (second compound 1 µM): 102 nM
- IC50 (second compound 3.16 µM): 121 nM
- IC50 (second compound 10 µM): 130 nM
- viability, T/C [1]: 93.8%
- viability, T/C [2]: 72.7%
- viability, T/C [3]: 32.3%
- viability, T/C [4]: 19.8%
- viability, T/C [5]: 11.4%
- viability, T/C [6]: 7.42%
- viability, T/C [7]: 92.8%
- viability, T/C [8]: 69.2%
- viability, T/C [9]: 28.1%
- viability, T/C [10]: 20.1%
- viability, T/C [11]: 9.53%
- viability, T/C [12]: 9.35%
- viability, T/C [13]: 95.8%
- viability, T/C [14]: 62.1%
- viability, T/C [15]: 30%
- viability, T/C [16]: 16.4%
- viability, T/C [17]: 8.18%
- viability, T/C [18]: 6.73%
- viability, T/C [19]: 78%
- viability, T/C [20]: 50.4%
- viability, T/C [21]: 28.5%
- viability, T/C [22]: 16.4%
- viability, T/C [23]: 9.65%
- viability, T/C [24]: 7.97%
- viability, T/C [25]: 87.7%
- viability, T/C [26]: 54.1%
- viability, T/C [27]: 29.4%
- viability, T/C [28]: 17.9%
- viability, T/C [29]: 7.8%
- viability, T/C [30]: 7.28%
- viability, T/C [31]: 89.1%
- viability, T/C [32]: 56.6%
- viability, T/C [33]: 28%
- viability, T/C [34]: 17.1%
- viability, T/C [35]: 9.36%
- viability, T/C [36]: 8.81%

SMILES: CCCS(=O)(=O)Nc1ccc(F)c(C(=O)c2c[nH]c3ncc(-c4ccc(Cl)cc4)cc23)c1F + CN(C)c1ccc(Nc2c3ccc(NC(=O)CCN4CCCC4)cc3nc3cc(NC(=O)CCN4CCCC4)ccc23)cc1
- IC50 (second compound 0.0316 µM): 7630 nM
- IC50 (second compound 0.1 µM): 7280 nM
- IC50 (second compound 0.316 µM): 7790 nM
- IC50 (second compound 1 µM): 4180 nM
- IC50 (second compound 3.16 µM): 3090 nM
- IC50 (second compound 10 µM): 2400 nM
- viability, T/C [1]: 108%
- viability, T/C [2]: 91.9%
- viability, T/C [3]: 103%
- viability, T/C [4]: 98.1%
- viability, T/C [5]: 74.5%
- viability, T/C [6]: 42.4%
- viability, T/C [7]: 95.7%
- viability, T/C [8]: 103%
- viability, T/C [9]: 102%
- viability, T/C [10]: 100%
- viability, T/C [11]: 76.3%
- viability, T/C [12]: 40%
- viability, T/C [13]: 96.4%
- viability, T/C [14]: 96.2%
- viability, T/C [15]: 96.4%
- viability, T/C [16]: 90%
- viability, T/C [17]: 67%
- viability, T/C [18]: 45.3%
- viability, T/C [19]: 92.2%
- viability, T/C [20]: 84.3%
- viability, T/C [21]: 91%
- viability, T/C [22]: 89.7%
- viability, T/C [23]: 54.6%
- viability, T/C [24]: 35.4%
- viability, T/C [25]: 83.2%
- viability, T/C [26]: 89.6%
- viability, T/C [27]: 86.4%
- viability, T/C [28]: 81.7%
- viability, T/C [29]: 49.3%
- viability, T/C [30]: 24%
- viability, T/C [31]: 84.8%
- viability, T/C [32]: 80.4%
- viability, T/C [33]: 89.6%
- viability, T/C [34]: 71.1%
- viability, T/C [35]: 43.2%
- viability, T/C [36]: 11.9%

SMILES: COc1ncnc(C2CC2)c1-c1ncc2cnn(Cc3ccc(-c4nc(C(F)(F)F)cn4C(C)C)cc3)c2n1 + CN(C)c1ccc(Nc2c3ccc(NC(=O)CCN4CCCC4)cc3nc3cc(NC(=O)CCN4CCCC4)ccc23)cc1
- IC50 (second compound 0.0316 µM): > 10000 nM
- IC50 (second compound 0.1 µM): > 10000 nM
- IC50 (second compound 0.316 µM): > 10000 nM
- IC50 (second compound 1 µM): > 10000 nM
- IC50 (second compound 3.16 µM): > 10000 nM
- IC50 (second compound 10 µM): 8650 nM
- viability, T/C [1]: 101%
- viability, T/C [2]: 91.8%
- viability, T/C [3]: 84.1%
- viability, T/C [4]: 97.1%
- viability, T/C [5]: 89.8%
- viability, T/C [6]: 98.6%
- viability, T/C [7]: 94.8%
- viability, T/C [8]: 83.2%
- viability, T/C [9]: 88.7%
- viability, T/C [10]: 80.2%
- viability, T/C [11]: 93.4%
- viability, T/C [12]: 90.5%
- viability, T/C [13]: 90.5%
- viability, T/C [14]: 90.5%
- viability, T/C [15]: 75.7%
- viability, T/C [16]: 74.1%
- viability, T/C [17]: 88%
- viability, T/C [18]: 89.1%
- viability, T/C [19]: 79%
- viability, T/C [20]: 88.3%
- viability, T/C [21]: 83.5%
- viability, T/C [22]: 67.9%
- viability, T/C [23]: 64.2%
- viability, T/C [24]: 75.5%
- viability, T/C [25]: 82.6%
- viability, T/C [26]: 77.8%
- viability, T/C [27]: 65.1%
- viability, T/C [28]: 74.1%
- viability, T/C [29]: 72.1%
- viability, T/C [30]: 66.9%
- viability, T/C [31]: 84.1%
- viability, T/C [32]: 69%
- viability, T/C [33]: 70.5%
- viability, T/C [34]: 71.8%
- viability, T/C [35]: 71.8%
- viability, T/C [36]: 46.9%

SMILES: O=C(NO)c1cnc(N2CCN(S(=O)(=O)c3ccc4ccccc4c3)CC2)nc1 + CN(C)c1ccc(Nc2c3ccc(NC(=O)CCN4CCCC4)cc3nc3cc(NC(=O)CCN4CCCC4)ccc23)cc1
- IC50 (second compound 0.0316 µM): 325 nM
- IC50 (second compound 0.1 µM): 326 nM
- IC50 (second compound 0.316 µM): 322 nM
- IC50 (second compound 1 µM): 314 nM
- IC50 (second compound 3.16 µM): 335 nM
- IC50 (second compound 10 µM): 261 nM
- viability, T/C [1]: 108%
- viability, T/C [2]: 89.4%
- viability, T/C [3]: 54.2%
- viability, T/C [4]: 0.96%
- viability, T/C [5]: 1.31%
- viability, T/C [6]: 3.07%
- viability, T/C [7]: 116%
- viability, T/C [8]: 98.7%
- viability, T/C [9]: 54%
- viability, T/C [10]: 0.82%
- viability, T/C [11]: 1.32%
- viability, T/C [12]: 2.31%
- viability, T/C [13]: 104%
- viability, T/C [14]: 98.1%
- viability, T/C [15]: 51%
- viability, T/C [16]: 0.47%
- viability, T/C [17]: 1.57%
- viability, T/C [18]: 1.8%
- viability, T/C [19]: 93%
- viability, T/C [20]: 96%
- viability, T/C [21]: 49.7%
- viability, T/C [22]: 0.55%
- viability, T/C [23]: 2.23%
- viability, T/C [24]: 1.4%
- viability, T/C [25]: 86.6%
- viability, T/C [26]: 90.9%
- viability, T/C [27]: 52.6%
- viability, T/C [28]: 0.33%
- viability, T/C [29]: 0.17%
- viability, T/C [30]: 1.59%
- viability, T/C [31]: 87.6%
- viability, T/C [32]: 70.2%
- viability, T/C [33]: 47.4%
- viability, T/C [34]: 0.97%
- viability, T/C [35]: 2.45%
- viability, T/C [36]: 1.01%
